Reference: BigSolDB 2.1

COC(=O)c1cc(O)c(O)c(O)c1
solubility (mole fraction)
Conditions	in acetone	in ethanol	in ethyl acetate	in isobutanol	in isopropanol	in methanol	in methyl acetate	in n-butanol	in n-propanol
293.15 K	0.0929	0.0706	0.0217	0.02	0.0505	0.0812	0.0266	0.0354	0.0425
298.15 K	0.099	0.0758	0.0247	0.0231	0.0556	0.0864	0.0305	0.0398	0.0475
303.15 K	0.106	0.0819	0.0283	0.0266	0.0625	0.0931	0.0348	0.0446	0.053
308.15 K	0.113	0.0881	0.0324	0.0306	0.0677	0.1	0.0396	0.0499	0.0582
313.15 K	0.121	0.0955	0.0372	0.0351	0.0747	0.107	0.045	0.0557	0.0646
318.15 K	0.13	0.103	0.0425	0.0403	0.0819	0.115	0.0509	0.0621	0.0713
323.15 K	0.139	0.11	0.0487	0.0462	0.0902	0.123	0.0573	0.069	0.0783
328.15 K	0.15	0.119	0.055	0.0528	0.0991	0.134	0.0643	0.0766	0.0864
333.15 K	0.161	0.128	0.0621	0.0603	0.107	0.143	0.0718	0.0847	0.0957
